The results in this text go back to PubChem BioAssay (NCI).

Each structure is given as a SMILES string.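 Assay format: 96-well plates, 48-hour exposure. At the GI50, growth is halved. TGI marks complete inhibition of growth.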

Test systems include A549 NSCLC; ACHN renal; EKVX NSCLC; MCF7 breast; NCI-H460 lung; PC-3 prostate; SF-268 CNS; SF-295 CNS; SNB-75 CNS; UO-31 renal.
Holding throughout (assay): NCI-60 cell line screen, 48 h

Regarding `C=C1C(O)C2C(=C(C)C13CC3)C(=O)C(C)(C)C2OC` (configuration not stated), the GI50 was greater than 100 µM in the test with A549 NSCLC; greater than 100 µM in the test on ACHN renal; greater than 100 µM in the test on EKVX NSCLC; 69.4 µM in the test with MCF7 breast; greater than 100 µM with NCI-H460 lung; greater than 100 µM in the test on PC-3 prostate. The GI50 in the test with SF-268 CNS, with SF-295 CNS, in the test with SNB-75 CNS and with UO-31 renal was greater than 100 µM in each case. In addition, the TGI with A549 NSCLC, in the test with ACHN renal, with EKVX NSCLC, with MCF7 breast, in the test with NCI-H460 lung and in the test with PC-3 prostate was greater than 100 µM each time. The TGI with SF-268 CNS, with SF-295 CNS, with SNB-75 CNS and in the test on UO-31 renal was greater than 100 µM in each case.
With `CNC(C)[C@H]1CCC2C3CC=C4C(=O)[C@@H](NC(=O)C=C(C)C)CC[C@]4(C)C3CC[C@@]21C` (some centres not stated), the GI50 was 2.46 µM in the test with A549 NSCLC; 3.29 µM in the test with ACHN renal; 1.14 µM in the test on EKVX NSCLC; 1.7 µM with MCF7 breast; 1.26 µM in the test on NCI-H460 lung; 1.9 µM in the test with PC-3 prostate. Moreover, the GI50 in the test on SF-268 CNS is 1.6 µM; in the test on SF-295 CNS, 1.63 µM; in the test with SNB-75 CNS, 2.26 µM; with UO-31 renal it was 1.33 µM. Moreover, the TGI in the test with A549 NSCLC amounted to 6.82 µM; in the test on ACHN renal it was 12.6 µM; in the test on EKVX NSCLC it was 11.2 µM; in the test with MCF7 breast it was 5.98 µM; in the test on NCI-H460 lung, 2.76 µM; in the test with PC-3 prostate, 11.5 µM. Also, the TGI in the test with SF-268 CNS was determined as 3.66 µM; in the test with SF-295 CNS, 4.41 µM; in the test on SNB-75 CNS, 10.4 µM; in the test with UO-31 renal it was 3.14 µM.
Turning to `COC(=O)[C@]12CC[C@@H](C)[C@H](C)[C@@H]1C1=CC[C@@H]3[C@@]4(C)C(C=O)=C[C@@](C)(COC(=O)c5ccco5)[C@@H]4[C@H](O)C[C@@]3(C)[C@]1(C)CC2`, the GI50 with A549 NSCLC was 3.51 µM; in the test on ACHN renal, 1.13 µM; in the test with EKVX NSCLC, 3.02 µM; in the test with MCF7 breast, 2.31 µM; with NCI-H460 lung, 2.51 µM; in the test on PC-3 prostate, 1.29 µM. The GI50 in the test with SF-268 CNS was 2.66 µM; in the test with SF-295 CNS, 1.95 µM; in the test with SNB-75 CNS, 1.49 µM; in the test with UO-31 renal it was 1.66 µM. Moreover, the TGI with A549 NSCLC is 16.2 µM; with ACHN renal, 3.78 µM; in the test with EKVX NSCLC, 13.8 µM; with MCF7 breast, 9.86 µM; with NCI-H460 lung it was 6.3 µM; with PC-3 prostate, 7.55 µM. Besides, the TGI turned out to be 12.6 µM in the test with SF-268 CNS, 4.69 µM in the test with SF-295 CNS, 4.12 µM with SNB-75 CNS and 3.48 µM in the test with UO-31 renal.
Take `COc1cc(/C=C/C(=O)Oc2ccccc2)ccc1C(=O)O/C=C/c1ccccc1`: the TGI in the test with A549 NSCLC, in the test on ACHN renal, with EKVX NSCLC, in the test with MCF7 breast, in the test with NCI-H460 lung and in the test with PC-3 prostate was greater than 100 µM in each case. Further, the TGI in the test with SF-268 CNS, with SF-295 CNS, in the test with SNB-75 CNS and in the test on UO-31 renal was greater than 100 µM in each case.
As for `COc1cc2c3c(n(CCCN(CCO)CCO)c(=O)c2cc1OC)-c1cc2c(cc1C3=O)OCO2`, the GI50 with A549 NSCLC was 0.155 µM; in the test on ACHN renal it was less than 0.01 µM; with EKVX NSCLC, 0.887 µM; in the test on MCF7 breast, less than 0.01 µM; with NCI-H460 lung, less than 0.01 µM; with SF-268 CNS, less than 0.0332 µM. In addition, the GI50 in the test with SF-295 CNS is less than 0.01 µM; in the test on SNB-75 CNS it was 0.0811 µM. Further, the TGI with A549 NSCLC was 13 µM; in the test with ACHN renal it was 0.0855 µM; in the test on EKVX NSCLC, 13.6 µM; in the test on MCF7 breast, greater than 24.7 µM; in the test with NCI-H460 lung, 2.28 µM; with PC-3 prostate, 2.12 µM. Further, the TGI with SF-268 CNS is 7.26 µM; in the test on SF-295 CNS, 0.288 µM; with SNB-75 CNS, 2.19 µM.
In the case of `COc1cc(C(=O)O[C@H](C(N)=O)[C@]2(C)CO2)c2cccc(C)c2c1`, the TGI was greater than 100 µM in the test with A549 NSCLC; 4.61 µM with EKVX NSCLC; greater than 100 µM in the test with MCF7 breast; greater than 32.1 µM with NCI-H460 lung; 2.76 µM in the test on PC-3 prostate; greater than 100 µM in the test with SF-268 CNS. For the same compound, the TGI with SF-295 CNS came to 1.84 µM; with SNB-75 CNS, 4.13 µM; with UO-31 renal it was 0.33 µM. Further, the GI50 in the test on EKVX NSCLC was 0.35 µM; with MCF7 breast, less than 0.0367 µM; in the test on NCI-H460 lung, 0.395 µM; in the test with SF-295 CNS, less than 0.0417 µM; with SNB-75 CNS, 0.933 µM; in the test on UO-31 renal, 0.0404 µM.
For `NCCCOc1cc2ccccc2cc1C(=O)NCCCOc1cc2ccccc2cc1C(=O)Nc1ccc(Cl)cc1O`, the GI50 in the test with A549 NSCLC is 0.198 µM; in the test on ACHN renal, 0.387 µM; with EKVX NSCLC it was 0.74 µM; with MCF7 breast, 0.183 µM; in the test on NCI-H460 lung, 0.202 µM; in the test with PC-3 prostate, 0.306 µM. Besides, the GI50 in the test with SF-268 CNS was 0.904 µM; with SNB-75 CNS, 0.455 µM; in the test with UO-31 renal, 0.355 µM. The TGI in the test with A549 NSCLC was determined as 0.383 µM; in the test on ACHN renal, 1.44 µM; in the test with EKVX NSCLC, 2.43 µM; with MCF7 breast, 0.349 µM; with NCI-H460 lung, 0.387 µM; with PC-3 prostate it was 0.974 µM. Also, the figures for the TGI with SF-268 CNS, with SNB-75 CNS and in the test on UO-31 renal were 3.17 µM, 1.02 µM and 1.78 µM, respectively.
Take `Oc1ccc(/C=C/c2cc(O)cc3c2C(c2cc(O)cc(O)c2)C(c2ccc(O)c(O)c2)O3)cc1` (configuration not stated): the TGI is greater than 100 µM with A549 NSCLC; 33.8 µM in the test with ACHN renal; greater than 100 µM in the test with EKVX NSCLC; greater than 100 µM in the test with MCF7 breast; greater than 100 µM in the test with PC-3 prostate; greater than 100 µM in the test with SF-268 CNS. The TGI with SF-295 CNS, in the test on SNB-75 CNS and with UO-31 renal was greater than 100 µM in each case.
For the compound `COc1cc(OC)c2sc(-c3ccc(-n4cncc4-c4cc(OC)c(OC)c(OC)c4)cc3)nc2c1`, the GI50 in the test on A549 NSCLC was 6.16 µM; in the test with ACHN renal it was 6.67 µM; with EKVX NSCLC, 5.09 µM; in the test on MCF7 breast it was 3.88 µM; in the test on NCI-H460 lung, 4.67 µM; in the test on PC-3 prostate, 2.54 µM. For the same compound, the GI50 in the test with SF-295 CNS was 4.42 µM; in the test with SNB-75 CNS it was 6.47 µM; in the test with UO-31 renal, 2.27 µM. For the same compound, the TGI in the test on A549 NSCLC, with ACHN renal, in the test on EKVX NSCLC, with MCF7 breast, in the test on NCI-H460 lung and in the test with PC-3 prostate was greater than 100 µM throughout. For the same compound, the TGI in the test with SF-295 CNS, with SNB-75 CNS and in the test on UO-31 renal was greater than 100 µM throughout.
